Data reported in article PMC10397248, “A novel N^6-Deoxyadenine methyltransferase METL-9 modulates C. elegans immunity via dichotomous mechanisms” (Cell Research, 2023).

How the values were obtained:
[1] = molecular target: T1, METL-9 (recombinant GST-METL-9) (Caenorhabditis elegans, UniProt Q22123, N172K/D274G); assay: in vitro DNA 6mA methylation, LC-MS/MS; type: biochemical; details: biotin-ssDNA oligo 2 uM, d3-SAM 0.1 mM, HEPES pH 7.5, 2.5 mM MgCl2, 80 mM KCl, 20 °C; methyl donor; labelled compound
T1 sequence (Q22123 1-311 N172K/D274G): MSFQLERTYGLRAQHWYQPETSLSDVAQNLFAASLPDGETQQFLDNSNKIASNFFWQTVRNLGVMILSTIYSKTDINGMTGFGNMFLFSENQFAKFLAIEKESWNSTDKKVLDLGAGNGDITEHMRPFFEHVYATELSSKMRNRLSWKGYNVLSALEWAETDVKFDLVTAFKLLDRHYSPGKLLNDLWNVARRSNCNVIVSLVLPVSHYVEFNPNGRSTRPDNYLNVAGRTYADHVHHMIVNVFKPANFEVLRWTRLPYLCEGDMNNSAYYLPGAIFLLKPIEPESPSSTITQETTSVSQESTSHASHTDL

[2] = molecular target: mouse Mettl9 (recombinant GST-Mettl9) (Mus musculus, UniProt Q9EPL4); assay: in vitro DNA 6mA methylation, LC-MS/MS; type: biochemical; details: biotin-ssDNA or bubbled DNA with GAGG motif 2 uM, SAM or d3-SAM 0.1 mM (which one only in supplement), pH 7.5, 2.5 mM MgCl2, 25 °C; methyl donor
purified protein = substrate: C[S+](CC[C@H](N)C(=O)O)C[C@H]1O[C@@H](n2cnc3c(N)ncnc32)[C@H](O)[C@@H]1O; assay: purified protein; details: ssDNA oligo 5 uM, varied d3-SAM, HEPES pH 7.5, 2.5 mM MgCl2, 80 mM KCl, 20 °C, methyl donor, labelled compound

Chain of mouse Mettl9 (recombinant GST-Mettl9) (Q9EPL4 whole entry): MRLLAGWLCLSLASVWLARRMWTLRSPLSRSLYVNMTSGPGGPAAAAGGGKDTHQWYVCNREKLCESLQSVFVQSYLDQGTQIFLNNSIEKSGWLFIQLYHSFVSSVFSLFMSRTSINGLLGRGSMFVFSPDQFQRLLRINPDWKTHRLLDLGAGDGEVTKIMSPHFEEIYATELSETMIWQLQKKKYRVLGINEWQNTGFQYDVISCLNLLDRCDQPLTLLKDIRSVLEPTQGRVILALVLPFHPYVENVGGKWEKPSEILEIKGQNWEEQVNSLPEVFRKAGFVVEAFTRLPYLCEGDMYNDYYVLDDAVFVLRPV

## C[S+](CC[C@H](N)C(=O)O)C[C@H]1O[C@@H](n2cnc3c(N)ncnc32)[C@H](O)[C@@H]1O (stereo partly shown) [d3-SAM]
[1]
  in vitro DNA 6mA methylation, LC-MS/MS: double mutant (M8 + M10, metl-9^mut) almost completely abolished the 6mA methyltransferase activity of METL-9

## C[S+](CC[C@H](N)C(=O)O)C[C@H]1O[C@@H](n2cnc3c(N)ncnc32)[C@H](O)[C@@H]1O (stereo partly shown) [SAM]
[2]
  in vitro DNA 6mA methylation, LC-MS/MS: mouse Mettl9 protein showed 6mA methyltransferase activity towards ssDNA and bubbled DNA

B1: METL-9 (recombinant GST-METL-9) (Caenorhabditis elegans) (protein)
chain: MSFQLERTYGLRAQHWYQPETSLSDVAQNLFAASLPDGETQQFLDNSNKIASNFFWQTVRNLGVMILSTIYSKTDINGMTGFGNMFLFSENQFAKFLAIEKESWNSTDKKVLDLGAGNGDITEHMRPFFEHVYATELSSKMRNRLSWKGYNVLSALEWAETDVKFDLVTAFNLLDRHYSPGKLLNDLWNVARRSNCNVIVSLVLPVSHYVEFNPNGRSTRPDNYLNVAGRTYADHVHHMIVNVFKPANFEVLRWTRLPYLCEGDMNNSAYYLPDAIFLLKPIEPESPSSTITQETTSVSQESTSHASHTDL
Purified protein
  Km: 37.69 ± 3.75 µM
  kcat: 0.00131 ± 5.83e-05 s⁻¹
